# Assay results published in patent publication US5843992A, “Epoxysuccinic acid derivatives” (Nippon Chemiphar Co., Ltd., priority 1995, dated 1998).
# Read-outs that look alike come from different tables or passages of the source.
# Assays:
# cathepsin B [1] = biological target: T1, cathepsin B (Rattus norvegicus, UniProt P00787); test: Cathepsin B inhibitory action (lysosome fraction, Z-Arg-Arg-MCA); type: biochemical, rat (Wistar); settings: pH 6.0, 30° C.; read-out: Cathepsin B Inhibition (IC50)
# T1 construct: Preparation of Rat Liver Lysosome Fraction; from tissue; host or cells: rat liver lysosome fraction (male Wistar rat)
# T1 sequence (P00787 80-339): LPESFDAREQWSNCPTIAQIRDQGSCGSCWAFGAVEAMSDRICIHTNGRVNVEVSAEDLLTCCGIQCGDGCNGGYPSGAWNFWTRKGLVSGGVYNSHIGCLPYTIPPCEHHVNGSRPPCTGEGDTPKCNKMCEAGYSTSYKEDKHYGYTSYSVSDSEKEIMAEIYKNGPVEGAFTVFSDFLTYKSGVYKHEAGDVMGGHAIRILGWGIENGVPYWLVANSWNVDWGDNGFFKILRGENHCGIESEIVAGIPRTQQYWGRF
# Description: Male rat of Wistar strain was killed by exsangulnation and a ice-chilled physiological saline was introduced into portal vein for circulation. Then, its liver was taken out. Thereafter, the following procedures were performed at 4° C.
# The liver was minced by scissors. Five grams of minced liver were homogenized in a Potter type Teflon Homogenizer after addition of 0.25M aqueous sucrose solution in a volume as much as nine times. The homogenized mixture was centrifuged for 10 minutes at 800 G. The resulting supernatant was further centrifuged at 12,000 G for 20 minutes. The precipitate was homogenized in 25 mL of 0.25M aqueous sucrose solution, and then centrifuged for 20 minutes at 12,000 G. The resulting precipitate was further homogenized after 100 mL of 0.25M aqueous sucrose solution. Thus, a lysosome fraction was obtained.
# To 0.25 mL of a solution (pH: 6.0) containing 352 mM KH2 PO4, 48 mM Na2 HPO4, 5.32 mM EDTA.2 Na and 10 mM L-cysteine were added 0.1 mL of the lysosome fraction, 5 μL of the test compound solution, and 0.545 mL of distilled water. The mixture was preincubated at 30° C. for 15 minutes. Thereafter, the reaction was started by the addition of 0.1 mL of a solution of 50 μM carbobenzoxy-L-arginine-L-arginine-4-methylcoumaryl-7-amide (Z-Arg-Arg-MCA, substrate). The reaction was performed at 30° C. for 20 minutes, and then terminated by addition of 1 mL of an aqueous solution (pH: 4.3) containing 100 mM sodium monochloroacetate, 30 mM sodium acetate and 70 mM acetic acid. The finally obtained solution was subjected to measurement of fluorescence strength (excitation wavelength: 380 nm, emission wavelength: 460 nm).
# [2] = system: ICR mouse calvaria (bone resorption); test: Bone resorption inhibitory activity (PTH-stimulated calcium release from mouse calvaria); type: cell-based; settings: read-out: Bone Resorption Inhibition, inhibition ratio (%)
# Description: From ICR mouse (age: 6 to 7 days), calvaria was taken under aseptic conditions. The calvaria was divided along the median line into two parts after its connective tissue was removed. In a culture medium (modified BGjb medium, containing 5% inactivated bovine fetal serum) in an amount of 1 mL per a pair of bones, a pre-culture was performed for 24 hours under the conditions of 5% CO2 and 37° C. After the pre-culture was complete, each one of bone was placed in 0.5 mL of the same culture medium containing the test compound of different concentration, and cultured for 72 hours in the presence of 3×10^-7 M parathyroid hormone (PTH). For the control, culture was performed in the same manner except for using neither test compound nor PTH.
# After the culture was complete, the amount of calcium released in the supernatant of the culture medium in the 72 hour culture as well as the amount of calcium contained in the bone (dissolved in 1 mL of 6N hydrochloric acid) were determined by ortho-cresol phthalein complexon (OCPC) method.
# The calcium release ratio (%) was calculated according to the following equation: [formula]
# The inhibition ratio (%) of bone resorption by the test compound was calculated according to the following equation: [formula]
# cathepsin L = cathepsin L (Rattus norvegicus, UniProt P07154); test: Cathepsin L inhibitory action (rat liver lysosome fraction, Z-Phe-Arg-MCA); type: biochemical, rat (Wistar); settings: pH 5.5, 30° C., in the presence of 10^-7 M CA-074; read-out: Cathepsin L Inhibition IC50
# cathepsin L, sequence (P07154 114-334): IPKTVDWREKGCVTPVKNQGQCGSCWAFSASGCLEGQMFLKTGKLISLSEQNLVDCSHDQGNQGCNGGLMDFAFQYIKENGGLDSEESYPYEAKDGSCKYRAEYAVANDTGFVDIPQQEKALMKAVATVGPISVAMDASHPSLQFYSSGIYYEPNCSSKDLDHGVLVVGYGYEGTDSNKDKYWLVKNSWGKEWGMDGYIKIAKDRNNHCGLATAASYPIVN
# cathepsin B [3] = biological target: T1, cathepsin B; settings: 10^-7 M CA-074, pH 5.5, Z-Phe-Arg-MCA; cited from earlier work
# [4] = Concentration of Test Comp. 10^-4 M, 72 hours, 3×10^-7 M PTH
# [5] = Concentration of Test Comp. 10^-5 M, 72 hours, 3×10^-7 M PTH
# [6] = Concentration of Test Comp. 10^-6 M, 72 hours, 3×10^-7 M PTH
SMILES,IC50 (cathepsin B [1]) [nM],inhibition at 1 µM ([2]; 72 h) [%],inhibition at 10 µM ([2]; 72 h) [%],inhibition at 100 µM ([2]; 72 h) [%],IC50 (cathepsin L) [nM],"inhibition at 100 µM [2, 4] [%]","inhibition at 10 µM [2, 5] [%]","inhibition at 1 µM [2, 6] [%]",cathepsin B activity inhibition (cathepsin B [3])
O=C(O)[C@H]1O[C@@H]1C(=O)NC(Cc1ccccc1)Cc1ccccc1,200,,,,,,,,
O=C(O)[C@H]1O[C@@H]1C(=O)NC(c1ccccc1)c1ccccc1,230,90,82,95,240,,,,
CC(C)CCC(CCC(C)C)NC(=O)[C@H]1O[C@@H]1C(=O)O,310,63,87,82,19,,,,
"CC(C)CCNC(=O)[C@H]1O[C@@H]1C(=O)O (relative stereo) [Comparison X, reference compound]",,,,,78,66,40,25,
"O=C(O)[C@H]1O[C@@H]1C(=O)NCc1ccccc1 (relative stereo) [Comparison Y, reference compound]",,,,,350,44,38,21,
CCCNC(=O)[C@H]1O[C@@H]1C(=O)N[C@H](C(=O)N1CCC[C@H]1C(=O)O)[C@@H](C)CC [CA-074],,,,,,,,,completely inhibited
